This is an account of results in patent publication US20240239795A1, “NOVEL AZAINDOLE DERIVATIVES AS ANTIVIRAL AGENTS” (Centre National de la Recherche Scientifique, priority 2021, published 2024).

Assay [1] concerns WNV virus, Kunjin strain (KUNV). Put plainly: Antiviral activity against the WNV virus Kunjin strain in HeLa cells (nanoluciferase reporter). The format is cell-based. The note with it: West Nile virus, KUNV-luciferase reporter virus, MOI=0.1, 24 h.
Assay [2] concerns ZIKV BeH8 strain. Put plainly: Antiviral activity against the Zika virus in HeLa cells (viral RNA by qRT-PCR). To be noted: for IC50: Zika virus, HeLa, 24 h, read-out: IC50 ZIKV.
The subject of assay [3] is MAYV virus, TRVL4576 strain. Description: Antiviral activity against the Mayaro virus in HeLa cells (luciferase reporter). The note with it: 24 h, read-out: IC50 MAYV. (In general: In a reporter assay the amount or activity of a reporter protein is the signal.)
The test system of assay [4] is CHIKV virus, LR-OPY1 strain. Put plainly: Antiviral activity against the Chikungunya virus in HeLa cells (luciferase/GFP reporter). The note with it: for IC50: Chikungunya virus, HeLa, 24 h, read-out: IC50 CKV.
The test system of assay [5] is SARS-COV2 virus, BetaCoV/France/IDF0371/2020. Put plainly: Antiviral activity against SARS-COV2 coronavirus in VeroE6 cells (viral RNA by qRT-PCR). The class given is cell-based. To be noted: 1.25 μM, 24 h. (In general: Real-time PCR tracks product formation cycle by cycle.)

As to `Cc1ccc(C(=O)Nc2cccc(-c3c[nH]c4ncc(-c5ccccc5)cc34)c2)c(=O)n1-c1ccc(F)cc1` [Compound 4, 1-(4-fluorophenyl)-6-methyl-2-oxo-1,2-dihydro-pyridine-3-carboxylic acid [3-(5-phenyl-1H-pyrrolo[2,3-b]pyridin-3-yl)-phenyl]-amide], the IC50 in assay [1] turned out to be 1320 nM; in assay [2] it was 290 nM; in assay [3] it was 313 nM; in assay [4] it was 243 nM. In assay [2] (HeLa cells, MOI=0.1, 24 h), the “concentration that prevents infection of the Hela cells by the strain ZIKV BeH-8” value is reported as “greater than or equal to 100 nM”. For the same compound, in assay [4] (HeLa cells, MOI=0.1, 24 h), the “concentration that prevents infection of the Hela cells by the Chikungunya virus” value was “greater than or equal to 100 nM”.

On to `O=C(Nc1ccc(F)cc1)C1(C(=O)Nc2cccc(-c3c[nH]c4ncc(-c5ccccc5)cc34)c2)CC1` [Compound 5, Cyclopropane-1,1-dicarboxylic acid (4-fluoro-phenyl)-amide [3-(5-phenyl-1H-pyrrolo[2,3-b]pyridin-3-yl)-phenyl]-amide], for which the “effect on infection of the cells by the SARS-COV2 virus” value in assay [5] is reported as “reduces the infection”.

With `Cc1ccc(C(=O)Nc2ccc(F)c(-c3c[nH]c4ncc(-c5ccccc5)cc34)c2)c(=O)n1-c1ccc(F)cc1` [Compound 15, 1-(4-fluorophenyl)-6-methyl-2-oxo-1,2-dihydro-pyridine-3-carboxylic acid [4-fluoro-3-(5-phenyl-1H-pyrrolo[2,3-b]pyridin-3-yl)-phenyl]-amide], the IC50 in assay [1] was 934 nM.

Take `Nc1nc(Nc2ccc3c(c2)CC[C@@H](N2CCCC2)CC3)nn1-c1cc2c(nn1)-c1ccccc1CCC2` [R428/Bemcentinib, reference compound]: the IC50 stood at 285 nM in assay [2] and 239 nM in assay [4].

In general, IC50 refers to the concentration that inhibits the measured activity by half.
